# Measured values reported in patent US6559099B1, “Methods for enhancing plant health, protecting plants from biotic and abiotic stress related injuries and enhancing the recovery of plants injured as a result of such stresses” (Wisconsin Alumni Research Foundation, priority 2000, dated 2003).
# Values joined by “and” are separate entries in the source; they are usually repeats but may differ in a detail not shown here. Equal values may be shown once.
# Tests used:
# Format in all cases: in vivo
# Tomato plants cv. H9478 = assay: Protection of drought injury and enhancement of recovery
# Protocol: Tomato plants cv. […] (cultivar of Heinz Co.) were grown in 20 liter pots and placed in a growth chamber maintained at 24/18° C. day/night temperatures and a 16 hour photoperiod with 400 μmol m^-2s^-1 of cool-white fluorescent lights. Two month-old plants were sprayed with either distilled water, […]) or LPE 18:1 (100 mg/L) before exposure to drought stress. Drought stress was given by withholding water for 2 days. The plants were sprayed once again with distilled water, […]) or LPE 18:1 (100 mg/L) right after water was given (alleviation of water stress). During drought stress, all water, […] 18:1-sprayed plants were severely wilted but regained turgor soon after water was given again.
# Tomato Plants cv. H9144 [1] = assay: Protection of pesticide (Marathon, imidacloprid) injury and enhancement of recovery; conditions: 200 mg/L in 1% ethanol; 10 days after spraying (FIG. 3)
# From the text: Marathon with active […] of imidacloprid (available from Olympic Chemical Co., PO Box K, Mainland, Pa.) is a pesticide used for controlling whitefly in plants. This is a systemic pesticide and is introduced to the plant via soil application. As the pesticide accumulates in the foliage the insects feeding on the plants are killed. Sometimes as this chemical accumulates in the plant it can result in phytotoxicity to the plant. To test this, tomato plants cv. […] (cultivar of Heinz Co.) were grown for two (2) months in 20 liter pots in a greenhouse. […] Many leaves lost chlorophyll and plants had poor shoot growth. Three weeks after the treatment of pesticide, […]18:1 or LPI (200 mg/L each) solution containing 1% ethanol were sprayed to the point that solution started to run off the leaves. Control plants were sprayed with distilled water containing 1% ethanol. The LPE solution was prepared by wetting 200 mg of LPE in 1 ml ethanol and then adding distilled water to make 1 liter of total volume. The LPE solution was then sonicated 1 minute before spraying.
# 'Hazel' oat seeds = assay: Seedling vigour (root and shoot fresh weight) of 'Hazel' oats soaked in LPE or LPC; conditions: 10 ppm (each), incubated at 20° C.; for Root fresh wt per seedling / Shoot Fresh wt per seedling: soaked 30 minutes; for Root fresh wt per seedlings / Shoot Fresh wt per seedlings: soaked 2 hours
# From the text: Values are mean±SE (4 replications). […] Values are mean±SE (4 replications).
# Tomato Plants cv. H9144 [2] = assay: Protection of chilling injury and enhancement of recovery, tomato seedlings; conditions: for Leaf Chlorophyll Mean ± SE / Leaf Phospholipids Mean ± SE / Leaf Water (fresh/dry wt ratio) Mean ± SE: measured 10 days after chilling
# Protocol: Tomato Plants cv. […] (cultivar of Heinz Co.) were grown in 20-liter pots containing […], Ohio) in a greenhouse which was supplied with additional tungsten light for a 16 hour photoperiod. […] Control leaf branch was sprayed with distilled water. The LPE solution was prepared by suspending 200 mg of crude […] (Avanti Polar Lipids, Inc., Alabaster, Ala.) in one liter of distilled water and then sonicating for 1 minute before spraying. After 4 days of chilling treatment at 4/2° C. day/night temperatures and a 16 hour photoperiod with 200 μmol m^-2 s^-1 fluorescent light intensity, plants were transferred to a growth chamber maintained at 24/18° C. day/night temperatures and a 16 hour photoperiod with 400 μmol m^-2 s^-1 of fluorescent light intensity. […] When measured 10 days after chilling, LPE-sprayed leaf tissues, either before or after chilling, had higher levels of water, chlorophyll, and phospholipid content than water-sprayed control (see Table 1 below). […] Chilling and recovery conditions were the same as in Example 1a above.
# [3] = system: Cucumber (Cucumis sativus inbred line-WI2238) plants; assay: Protection of chilling injury and recovery, cucumber seedlings; conditions: 100 mg/L sprayed twice, 1 hour before and right after 2 days chilling
# Protocol: Cucumber (Cucumis sativus inbred line-WI2238) plants were grown in 4 liter plastic pots containing a sterilized mixture of peat:sand:composited soil:field soil (1:1:1:1, v/v) at a greenhouse. Growing conditions and other details were same as in Example 1a. […] After 2 days of chilling treatment at the same conditions as in Example 1a , plants were transferred to a growth chamber maintained at 23±2° C. temperature and 16 hour photoperiod with 400 μmol […] of fluorescent light intensity.
# [4] = system: castor bean (Ricinus communis L. cv Hale)
# [5] = system: Sweet corn seeds (SS Jubilee); assay: Germination and seedling fresh mass of sweet corn seeds soaked in LPE solution; conditions: soaked 2 hours
# Protocol: Sweet corn seeds (SS Jubilee, certified seed obtained from the Wisconsin Crop Improvement Association, Madison Wis.) were soaked for 2 hours in LPE solution. Seeds were removed from the LPE solution and 50 seeds were placed on 2 paper towels and wetted with distilled water (5 seeds in one row) then seeds were covered with another wet paper towel. The three towels with the seeds were rolled, placed in a metal container and incubated at 25° C. The container was covered with plastic and the cover secured with a rubber band. The germination percentage was tested after 4 and 7 days. The procedure was as specified by the Association of Official Seed Analysts. Four replications were conducted with 50 seeds in each replication. […] Furthermore, LPE treated seeds produced larger (root and shoot) seedlings. SS Jubilee sweet corn seeds were soaked for 2 hours in LPE solution. Seeds were incubated using the same procedure described in Example 6. The germination percentage was tested after 4 and 7 days. Four replications were conducted with 50 seeds in each replication. […] On a commercial level, this means that LPE treatment of the seeds will insure more plants in a given field and that LPE treated seeds will produce plants having a head start.
# H.2350 field corn seeds = assay: Germination and seedling fresh weight of field corn seeds soaked in LPE solution; conditions: incubated at 25° C. for 8 days
# Protocol: H.2350 (Certified seed obtained from the Wisconsin Crop Improvement Association, Madison, Wis.) field corn seeds were soaked in LPE solution. Seeds were incubated at 25° C. for 8 days using the procedure described in Example 6. Four replications were conducted with 50 seeds in each replication.
# 'Hazel' oats = assay: Germination of 'Hazel' oats soaked in LPE or LPC; conditions: 10 ppm (each), incubated at 20° C.
# Protocol: ‘Hazel’ oats (Certified seed obtained from the Wisconsin Crop Improvement Association, Madison, Wis.) were soaked in LPE or LPC. Seeds were soaked for either 30 minutes or 2 hours at room temperature (23±2° C.) and then incubated at 20° C. using the official seed germination test rules (Rules for testing seeds are published by the Association of Official Seed Analysts) for testing seeds. Four replications were conducted with 100 seeds in each replication. […] Moreover, a greater proportion of the seeds treated with these lipids, germinated earlier. Thus, this seed treating increased both the rate and amount of seed germination.
# [6] = 100 mg/L sprayed before drought and right after water was given, after 2 or 3 days
# [7] = 200 mg/L LPEegg spray, 4 days chilling at 4/2° C., vs water-sprayed control
# [8] = 200 mg/L sprayed 1 hour before chilling
# [9] = 200 mg/L sprayed right after chilling
compound,measurement,setting,value
CCCCCCCC/C=C\CCCCCCCC(=O)OCC(O)COP(=O)(O)OCCN (stereo not drawn) [LPE 18:1],shoot growth after drought stress,Tomato plants cv. H9478; [6],vigorous shoot growth
same,shoot growth after drought stress,"Tomato plants cv. H9478; 100 mg/L, 7 days after drought stress was alleviated (FIG. 2)",vigorous shoot growth
same,shoot growth after pesticide injury,Tomato Plants cv. H9144 [1],vigorous shoot growth
Lysophosphatidyl choline [LPC],Root fresh wt per seedling,'Hazel' oat seeds,40.4 ± 2.7 mg
same,Shoot Fresh wt per seedling,'Hazel' oat seeds,108.9 ± 4.5 mg
same,Root fresh wt per seedlings,'Hazel' oat seeds,48.9 ± 0.7 mg
same,Shoot Fresh wt per seedlings,'Hazel' oat seeds,130.4 ± 2.7 mg
lysophosphatidylethanolamine [LPE],protection from chilling injury,"Tomato Plants cv. H9144 [2]; 100 mg/L LPEegg sprayed 1 hour before chilling, vs water-sprayed and non-sprayed controls",most effective in protecting the plant from chilling injury
same,chilling damage to the leaves,Tomato Plants cv. H9144 [2]; [7],mitigation of chilling damage to the leaves
same,shoot meristem growth after chilling,Tomato Plants cv. H9144 [2]; [7],enhanced shoot meristem growth
same,Leaf Chlorophyll Mean ± SE,Tomato Plants cv. H9144 [2]; [8],21.6 ± 0.1 mg/g dry wt
same,Leaf Phospholipids Mean ± SE,Tomato Plants cv. H9144 [2]; [8],25.9 ± 0.3 nmol/mg dry wt
same,Leaf Water (fresh/dry wt ratio) Mean ± SE,Tomato Plants cv. H9144 [2]; [8],10.1 ± 0.4 fresh/dry wt ratio
same,Leaf Chlorophyll Mean ± SE,Tomato Plants cv. H9144 [2]; [9],28.2 ± 4.0 mg/g dry wt
same,Leaf Phospholipids Mean ± SE,Tomato Plants cv. H9144 [2]; [9],25.7 ± 1.0 nmol/mg dry wt
same,Leaf Water (fresh/dry wt ratio) Mean ± SE,Tomato Plants cv. H9144 [2]; [9],10.81 ± 0.5 fresh/dry wt ratio
same,chilling damage in leaves,[3],severe chilling damage in leaves
same,shoot growth after chilling,[3]; after 7 days,vigorous shoot growth
same,shoot growth after drought stress,Tomato plants cv. H9478; [6],vigorous shoot growth
same,leaf curling and browning after wounding,[4]; after 1 day,much less leaf curling and browning
same,leaf turgidity after wounding,[4]; in vivo,remained turgid for several days
same,wound-healing symptoms,[4]; in vivo,leaf damaged areas were healed and gained green color
same,"Average Fresh Mass Produced from 50 seeds, Root (primary + secondary)","[5]; Table 2, 5 ppm",1.6 ± 0.4 g
same,"Average Fresh Mass Produced from 50 seeds, Shoot","[5]; Table 2, 5 ppm",10.0 ± 0.5 g
same,% Germination After 4 days,"[5]; Table 2, 5 ppm, 25° C.",61.0 ± 1.7%
same,% Germination After 7 days,"[5]; Table 2, 5 ppm, 25° C.",70.0 ± 2.2%
same,"Average Fresh Mass Produced from 50 seeds, Root (primary + secondary)","[5]; Table 2, 10 ppm",1.3 ± 0.1 g
same,"Average Fresh Mass Produced from 50 seeds, Shoot","[5]; Table 2, 10 ppm",8.7 ± 0.2 g
same,% Germination After 4 days,"[5]; Table 2, 10 ppm, 25° C.",69.0 ± 2.6%
same,% Germination After 7 days,"[5]; Table 2, 10 ppm, 25° C.",71.5 ± 2.8%
same,"Average Fresh Mass Produced from 50 seeds, Root (primary + secondary)","[5]; Table 2, 20 ppm",1.2 ± 0.0 g
same,"Average Fresh Mass Produced from 50 seeds, Shoot","[5]; Table 2, 20 ppm",10.4 ± 0.4 g
same,% Germination After 4 days,"[5]; Table 2, 20 ppm, 25° C.",60.0 ± 3.6%
same,% Germination After 7 days,"[5]; Table 2, 20 ppm, 25° C.",65.0 ± 1.3%
same,% Germination After 4 days,"[5]; Table 3 (Example 7), 1 ppm",68.5 ± 4.0%
same,% Germination After 7 days,"[5]; Table 3 (Example 7), 1 ppm",76.5 ± 4.6%
same,"Average Fresh Mass Produced from 50 seeds, Root (primary + secondary)","[5]; Table 3 (Example 7), 1 ppm",0.9 ± 0.1 g
same,"Average Fresh Mass Produced from 50 seeds, Shoot","[5]; Table 3 (Example 7), 1 ppm",9.1 ± 0.8 g
same,% Germination After 4 days,"[5]; Table 3 (Example 7), 10 ppm",61.5 ± 5.7% and 73.8 ± 2.8%
same,% Germination After 7 days,"[5]; Table 3 (Example 7), 10 ppm",68.0 ± 3.4% and 78.0 ± 2.3%
same,"Average Fresh Mass Produced from 50 seeds, Root (primary + secondary)","[5]; Table 3 (Example 7), 10 ppm",0.8 ± 0.0 g and 1.1 ± 0.1 g
same,"Average Fresh Mass Produced from 50 seeds, Shoot","[5]; Table 3 (Example 7), 10 ppm",7.6 ± 0.3 g and 10.4 ± 0.4 g
same,% Germination,H.2350 field corn seeds; 5 ppm,97.0 ± 0.6%
same,"Fresh Weight Root (primary + secondary), average mass produced from 50 seeds",H.2350 field corn seeds; 5 ppm,14.2 ± 0.8 g
same,"Fresh Weight Shoot, average mass produced from 50 seeds",H.2350 field corn seeds; 5 ppm,16.2 ± 0.6 g
same,% Germination,H.2350 field corn seeds; 10 ppm,98.5 ± 1.0%
same,"Fresh Weight Root (primary + secondary), average mass produced from 50 seeds",H.2350 field corn seeds; 10 ppm,13.6 ± 0.3 g
same,"Fresh Weight Shoot, average mass produced from 50 seeds",H.2350 field corn seeds; 10 ppm,15.6 ± 0.7 g
same,% Germination (Mean ± SE) After 4 days,'Hazel' oats; soaked 30 min,87.7 ± 0.9% and 82.5 ± 1.7%
same,% Germination (Mean ± SE) After 10 days,'Hazel' oats; soaked 30 min,91.3 ± 0.7% and 90.8 ± 1.1%
same,% Germination (Mean ± SE) After 4 days,'Hazel' oats; soaked 2 hours,82.8 ± 1.1% and 82.0 ± 1.2%
same,% Germination (Mean ± SE) After 10 days,'Hazel' oats; soaked 2 hours,94.3 ± 1.3% and 93.5 ± 1.0%
same,Root fresh wt per seedling,'Hazel' oat seeds,48.4 ± 1.9 mg
same,Shoot Fresh wt per seedling,'Hazel' oat seeds,124.1 ± 3.0 mg
same,Root fresh wt per seedlings,'Hazel' oat seeds,46.4 ± 0.6 mg
same,Shoot Fresh wt per seedlings,'Hazel' oat seeds,121.1 ± 2.5 mg
lysophosphatidylinositol [LPI],shoot growth after pesticide injury,Tomato Plants cv. H9144 [1],vigorous shoot growth
